Like-named read-outs stand apart in the source and are kept apart here.
Assays:
[1] = molecular target: T1, human 17β-HSD 4 (Homo sapiens, UniProt P51659); experiment: In vitro enzymatic activity, recombinant human 17β-HSD 4 SDR-domain (estradiol oxidation); assay type: biochemical; conditions: 2 µM compound, 21 nM 3H-estradiol, NAD+, pH 7.7
T1 construct: For 17β-HSD 4 only the SDR-domain converting the steroids was subcloned; made in house; host or cells: E.coli BL21 DE3 Codon Plus RP
T1 sequence (P51659 1-305 limits assumed): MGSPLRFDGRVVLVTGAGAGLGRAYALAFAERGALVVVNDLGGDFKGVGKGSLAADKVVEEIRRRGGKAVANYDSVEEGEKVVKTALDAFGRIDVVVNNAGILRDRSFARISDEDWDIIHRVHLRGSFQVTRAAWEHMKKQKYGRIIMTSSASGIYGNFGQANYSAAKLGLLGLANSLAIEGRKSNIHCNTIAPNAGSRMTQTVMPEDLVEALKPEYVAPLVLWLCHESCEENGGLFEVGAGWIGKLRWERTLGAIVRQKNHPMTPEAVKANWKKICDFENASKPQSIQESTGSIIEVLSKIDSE
From the text: (§1) Full length cDNAs of several 17β-HSDs type 1 originating from different species were cloned either into the pQE30 vector (human 17β-HSD 1, coding for acc. no. NP_000404) for expression as His-Tag protein or into a modified pGex-2T vector [63] (mouse 17β-HSD 1, acc. no. NP_034605; rat 17β-HSD 1, acc. no. NP_036983; marmoset 17β-HSD 1, acc. no. AAG01115; porcine 17β-HSD 1, acc. no. NP_001121944) for expression as GST-fusion proteins. The marmoset 17β-HSD 1 enzyme sequence was updated by the missing N-terminal part (AF272013) and the new porcine sequence was submitted to GenBank (NP_001121944). Human 17β-HSDs 2, 4, 5 (AKR1C3, the latter kindly provided by Dr. T. Penning) and 7 were all cloned into the modified pGEX-2T vector. For 17β-HSD 4 only the SDR-domain converting the steroids was subcloned. Plasmids were transformed into E.coli BL21 DE3 Codon Plus RP (Stratagene) and enzyme expression was induced by 0.5 mM IPTG. After 4h incubation at 37°C with continuous shaking bacteria were pelleted by centrifugation at 10.000×g. Pellets were stored until use at −20°C.
(§2) The bacteria containing recombinant enzymes were resuspended in PBS and enzymatic assays were performed in 100 mM sodium phosphate buffer at pH 6.6 for the reductive reaction and at pH 7.7 for the oxidative reaction. […] All substrates were purchased from NEN/Perkin Elmer. The cofactors NADPH (Sigma; for reductive reactions) and NAD^+ (Serva, for oxidative reactions) were used at final concentrations of 0.5 mg/ml. […] The incubation at 37°C was stopped with 0.21 M ascorbic acid in methanol∶acetic acid 99∶1 (v∶v) after the time needed to convert approximately 30% of the substrate in a control assay with 1% DMSO, without inhibitor candidates. […] The solvent used was acetonitrile∶water (43∶57, v∶v) at a flow rate of 1 ml/min. Radioactivity was detected by online-scintillation counting (Berthold LB506D) after mixing with ReadyFlowIII (Beckman). Conversion was calculated from integration of substrate and product peaks. […] All assays were run in duplicates of two independent experiments and mean values are reported. The IC50 values were determined by the One Ligand Binding model of SigmaPlot kinetics module.

[2] = molecular target: T2, human 17β-HSD 2 (Homo sapiens, UniProt P37059); experiment: In vitro enzymatic activity, recombinant human 17β-HSD 2 (estradiol oxidation); assay type: biochemical; conditions: 2 µM compound, 21 nM 3H-estradiol, NAD+, pH 7.7, read-out: Observed % inhibition
T2 construct: made in house; host or cells: E.coli BL21 DE3 Codon Plus RP
T2 sequence (P37059 1-387): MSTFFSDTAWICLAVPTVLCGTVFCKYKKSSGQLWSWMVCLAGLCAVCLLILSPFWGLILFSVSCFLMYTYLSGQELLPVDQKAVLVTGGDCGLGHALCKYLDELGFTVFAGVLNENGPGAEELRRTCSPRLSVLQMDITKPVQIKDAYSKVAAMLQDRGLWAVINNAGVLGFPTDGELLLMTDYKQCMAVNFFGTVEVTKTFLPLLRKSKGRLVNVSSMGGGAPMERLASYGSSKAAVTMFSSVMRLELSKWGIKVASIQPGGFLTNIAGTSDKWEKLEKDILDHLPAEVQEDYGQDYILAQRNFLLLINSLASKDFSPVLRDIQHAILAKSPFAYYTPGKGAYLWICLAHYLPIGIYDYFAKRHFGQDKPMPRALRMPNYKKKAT
From the text: as §1, §2

[3] = molecular target: T3, rat 17β-HSD 1 (Rattus norvegicus, UniProt P51657); experiment: In vitro enzymatic activity, recombinant rat 17β-HSD 1; assay type: biochemical; conditions: 2 µM compound, 15 nM 3H-estrone, read-out: Observed % inhibition
T3 construct: Full length cDNAs of several 17β-HSDs type 1 originating from different species were cloned; made in house; host or cells: E.coli BL21 DE3 Codon Plus RP
T3 sequence (P51657 1-344): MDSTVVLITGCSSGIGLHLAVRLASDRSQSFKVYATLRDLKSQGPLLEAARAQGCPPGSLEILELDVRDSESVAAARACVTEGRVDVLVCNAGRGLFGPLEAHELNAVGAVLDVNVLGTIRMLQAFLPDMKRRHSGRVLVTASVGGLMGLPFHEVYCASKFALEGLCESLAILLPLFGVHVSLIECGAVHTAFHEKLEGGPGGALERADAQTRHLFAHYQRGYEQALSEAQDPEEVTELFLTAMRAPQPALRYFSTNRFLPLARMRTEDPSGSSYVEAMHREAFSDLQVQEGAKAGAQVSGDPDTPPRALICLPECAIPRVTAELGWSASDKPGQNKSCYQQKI
From the text: as §1, §2

[4] = molecular target: T4, porcine 17β-HSD 1 (Sus scrofa, UniProt B2X0A4); experiment: In vitro enzymatic activity, recombinant porcine 17β-HSD 1; assay type: biochemical, pig; conditions: for IC50: Pig 17β-HSD 1, 0.005 µM to 5 µM inhibitor; for inhibition at 2 µM: read-out: Observed % inhibition
T4 sequence (B2X0A4 1-321): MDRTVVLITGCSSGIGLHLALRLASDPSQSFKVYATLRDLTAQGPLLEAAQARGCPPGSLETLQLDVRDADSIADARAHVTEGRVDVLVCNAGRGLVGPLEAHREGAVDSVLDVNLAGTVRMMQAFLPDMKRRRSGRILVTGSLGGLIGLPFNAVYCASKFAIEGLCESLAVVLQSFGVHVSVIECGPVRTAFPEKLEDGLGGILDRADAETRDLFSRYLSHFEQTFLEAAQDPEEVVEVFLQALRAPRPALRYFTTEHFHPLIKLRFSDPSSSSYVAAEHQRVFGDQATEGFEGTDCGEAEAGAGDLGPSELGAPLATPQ
From the text: as §1, §2

[5] = pig 17β-HSD 1, 2 µM compound, 15 nM 3H-estrone

## C[C@]12CC[C@@H]3c4ccc(O)cc4CC[C@H]3[C@@H]1[C@@H](CNC(=O)c1ccc(F)cc1)CC2=O [Compound 1]
[1]
  Observed % inhibition: 7.2%
[2]
  inhibition at 2 µM: -4.3%
[3]
  inhibition at 2 µM: 47.1%

## C[C@]12CC[C@@H]3c4ccc(O)cc4CC[C@H]3[C@@H]1[C@@H](CCCC(=O)N1CCOCC1)CC2=O [Compound 2]
[1]
  Observed % inhibition: 0.1%
[4]
  IC50: 457 nM
[4]; [5]
  inhibition at 2 µM: 67%
[2]
  inhibition at 2 µM: 16.7%
[3]
  inhibition at 2 µM: 40.3%

## Cc1cnc(NC(=O)CC[C@@H]2CC(=O)[C@@]3(C)CC[C@@H]4c5ccc(O)cc5CC[C@H]4[C@H]23)s1 [Compound 3]
[1]
  Observed % inhibition: 2.1%
[4]
  IC50: 0.34 nM
[4]; [5]
  inhibition at 2 µM: 105%
[2]
  inhibition at 2 µM: 18.6%
[3]
  inhibition at 2 µM: 5.3%

## COc1ccc(-c2cn(CCC[C@H]3CC(=O)[C@@]4(C)CC[C@@H]5c6ccc(O)cc6CC[C@H]5[C@H]34)nn2)cc1 [Compound 4]
[1]
  Observed % inhibition: 5.5%
[4]
  inhibition at 2 µM: 66.2%
[2]
  inhibition at 2 µM: -0.3%
[3]
  inhibition at 2 µM: 19.4%

## C[C@]12CC[C@@H]3c4ccc(O)cc4CC[C@H]3[C@@H]1C[C@H](CC(=O)NCc1cccnc1)C2=O [Compound 5, reference compound]
[1]
  Observed % inhibition: 5.6%
[4]; [5]
  inhibition at 2 µM: 95.7%
[2]
  inhibition at 2 µM: -3.2%
[3]
  inhibition at 2 µM: -2.4%

— article PMC2882332, “Species Used for Drug Testing Reveal Different Inhibition Susceptibility for 17beta-Hydroxysteroid Dehydrogenase Type 1” (PLoS ONE, 2010)
